Test system: collection of strains of P. aeruginosa
Assay: Agar well diffusion test (several strains)
Type: cell-based, Pseudomonas aeruginosa
Settings: control samples
Protocol: Conjugates 10 and 11 were first evaluated for their antibacterial ability against a collection of strains of P. aeruginosa using the agar well diffusion test. The influence of iron concentration on antibacterial activity was probed as well by conducting assays in iron-rich and iron-deficient media.
All liquids and media were sterilized by autoclaving (121° C., 15 min) before use. All aqueous solutions and media were prepared using distilled, deionized, and filtered water (Millipore Milli-Q Advantage A10 Water Purification System). Luria broth (LB) was purchased from VWR. Mueller-Hinton No. 2 broth (MHII broth; cation adjusted) was purchased from Sigma-Aldrich (St. Louis, Mo.). Iron-deficient (—Fe) MHII broth was prepared by adding 0.8 mL of a 1 mg/mL sterile aq. solution of 2,2′-bipyridine to 49.2 mL of MHII broth. Iron-rich (+Fe) MHII broth was prepared by adding 0.8 mL of a 1 mg/mL sterile aq. solution of FeCl3 to 49.2 mL of MHII broth. Mueller-Hinton No. 2 agar (MHII agar; HiMedia Laboratories) was purchased from VWR. Iron-deficient (−Fe) MHII agar was prepared by adding 0.5 mL of a 1 mg/mL sterile aq. solution of 2,2′-bipyridine to 34 mL of melted MHII agar with gentle mixing. Iron-rich (+Fe) MHII agar was prepared by adding 0.5 mL of a 1 mg/mL sterile aq. solution of FeCl3 to 34 mL of melted MHII agar with gentle mixing. See also Wencewicz, T. A. Dissertation, University of Notre Dame, Notre Dame, Ind., 2011, for relevant techniques.
Antibacterial Susceptibility Testing by the Agar Diffusion Assay.
Antibacterial activity of the compounds was determined by a modified Kirby-Bauer agar diffusion assay. Overnight cultures of test organisms were grown in LB broth for 18-24 h and standard suspensions of […] were prepared in saline solution (0.9% NaCl) according to a 0.5 BaSO4 McFarland Standard. This standardized suspension (0.1 mL) was added to 34 mL of sterile, melted agar (−Fe or +Fe) tempered to 47-50° C. After gentle mixing, the inoculated agar media was poured into a sterile plastic petri dish (145 mm×20 mm) and allowed to solidify near a flame with the lid ajar for about 30 min. Wells of 9.0 mm diameter were cut from the petri dish agar and filled with exactly 50 μL of the test sample solution. The petri dish was incubated at 37° C. for 18-24 h and the inhibition zone diameters were measured (mm) with an electronic caliper after 24 h.

Row | Compound | inhibitory effect in the agar well diffusion test
1 | CC(=O)Oc1cccc(C(=O)NCCCC(CCCNC(=O)c2cccc(OC(C)=O)c2OC(C)=O)(CCCNC(=O)c2cccc(OC(C)=O)c2OC(C)=O)NC(=O)CCC(=O)O)c1OC(C)=O [Compound 9] | did not show any inhibitory effect
2 | CC(=O)Oc1cccc(C(=O)NCCCC(CCCNC(=O)c2cccc(OC(C)=O)c2OC(C)=O)(CCCNC(=O)c2cccc(OC(C)=O)c2OC(C)=O)NC(=O)CCC(=O)N[C@@H](C(N)=O)c2ccccc2)c1OC(C)=O [Compound S1] | did not show any inhibitory effect

Reference: patent US9302012B2, “Anti-bacterial siderophore-aminopenicillin conjugates” (University of Notre Dame Du Lac, priority 2012, dated 2016)
